Experimental data published in US12077503B2, “Substituted cyclic amides and their use as herbicides” (FMC CORPORATION, priority 2015, dated 2024).

Experiments:
Type in all cases: in vivo
corn (Zea mays) = assay: Test A postemergence
Source text: (§1) Seeds of plant species selected from barnyardgrass (Echinochloa crus-galli), Kochia (Kochia scoparia), ragweed (common ragweed, Ambrosia elatior), ryegrass, Italian (Italian ryegrass, Lolium multiflorum), crabgrass, large (Digitaria sanguinalis), giant foxtail (Setaria faberii), green foxtail (Setaria viridis), morningglory (Ipomoea spp.), pigweed (Amaranthus retroflexus), velvetleaf (Abutilon theophrasti), wheat (Triticum aestivum), and corn (Zea mays) were planted into a blend of loam soil and sand and treated preemergence with a directed soil spray using test chemicals formulated in anon-phytotoxic solvent mixture which included a surfactant.
(§2) At the same time, plants selected from these crop and weed species and also blackgrass (Alopecurus myosuroides), and Galium (catchweed bedstraw, Galium aparine) were planted in pots containing the same blend of loam soil and sand and treated with postemergence applications of test chemicals formulated in the same manner. Plants ranged in height from 2 to 10 cm and were in the one- to two-leaf stage for the postemergence treatment. Treated plants and untreated controls were maintained in a greenhouse for approximately 10 d, after which time all treated plants were compared to untreated controls and visually evaluated for injury. Plant response ratings, summarized in Table A, are based on a 0 to 100 scale where 0 is no effect and 100 is complete control. A dash (-) response means no test result.

[1] = tested on: blackgrass (Alopecurus myosuroides); assay: Test A postemergence
Source text: as §1, §2

[2] = tested on: barnyardgrass (Echinochloa crus-galli); assay: Test A postemergence
Source text: as §1, §2

[3] = tested on: pigweed (Amaranthus retroflexus); assay: Test A postemergence
Source text: as §1, §2

Kochia (Kochia scoparia) [4] = assay: Test A postemergence
Source text: as §1, §2

[5] = tested on: Galium (catchweed bedstraw, Galium aparine); assay: Test A postemergence
Source text: as §1, §2

[6] = tested on: ryegrass, Italian (Italian ryegrass, Lolium multiflorum); assay: Test A postemergence
Source text: as §1, §2

[7] = tested on: wheat (Triticum aestivum); assay: Test A postemergence
Source text: as §1, §2

[8] = tested on: giant foxtail (Setaria faberii); assay: Test A postemergence
Source text: as §1, §2

[9] = tested on: ragweed (common ragweed, Ambrosia elatior); assay: Test A postemergence
Source text: as §1, §2

[10] = tested on: barnyardgrass (Echinochloa crus-galli); assay: Test A preemergence
Source text: as §1, §2

[11] = tested on: pigweed (Amaranthus retroflexus); assay: Test A preemergence
Source text: as §1, §2

Kochia (Kochia scoparia) [12] = assay: Test A preemergence
Source text: as §1, §2

[13] = tested on: ryegrass, Italian (Italian ryegrass, Lolium multiflorum); assay: Test A preemergence; conditions: for Plant response rating, Ryegrass, Italian: 125 g ai/ha, 0 to 100 scale (0 no effect, 100 complete control)
Source text: as §1, §2

[14] = tested on: giant foxtail (Setaria faberii); assay: Test A preemergence; conditions: for Plant response rating, Foxtail, Giant: 125 g ai/ha, 0 to 100 scale (0 no effect, 100 complete control)
Source text: as §1, §2

[15] = tested on: ragweed (common ragweed, Ambrosia elatior); assay: Test A preemergence; conditions: for Plant response rating, Ragweed: 125 g ai/ha, 0 to 100 scale (0 no effect, 100 complete control)
Source text: as §1, §2

rice (Oryra sativa) = assay: Test B flooded paddy test; conditions: Flood, 250 g ai/ha, 0 to 100 scale where 0 is no effect and 100 is complete control
Protocol: (§3) Plant species in the flooded paddy test selected from rice (Oryra sativa), sedge, umbrella (small-flower umbrella sedge, Cyperus difformis), ducksalad (Heteranthera limosa), and barnyardgrass (Echinochloa crus-galli) were grown to the 2-leaf stage for testing. At time of treatment, test pots were flooded to 3 cm above the soil surface, treated by application of test compounds directly to the paddy water, and then maintained at that water depth for the duration of the test. Treated plants and controls were maintained in a greenhouse for 13 to 15 d, after which time all species were compared to controls and visually evaluated. Plant response ratings, summarized in Table B, are based on a scale of 0 to 100 where 0 is no effect and 100 is complete control. A dash (-) response means no test result.

[16] = tested on: barnyardgrass (Echinochloa crus-galli); assay: Test B flooded paddy test; conditions: Flood, 250 g ai/ha, 0 to 100 scale where 0 is no effect and 100 is complete control
Protocol: as §3

[17] = tested on: sedge, umbrella (small-flower umbrella sedge, Cyperus difformis); assay: Test B flooded paddy test; conditions: Flood, 250 g ai/ha
Protocol: as §3

[18] = tested on: ducksalad (Heteranthera limosa); assay: Test B flooded paddy test; conditions: Flood, 250 g ai/ha, 0 to 100 scale where 0 is no effect and 100 is complete control
Protocol: as §3

[19] = 500 g ai/ha, postemergence, 0 to 100 scale, 0 no effect, 100 complete control
[20] = Postemergence, 125 g ai/ha, visual injury, 0 to 100 scale (0 no effect, 100 complete control), approx. 10 d
[21] = 125 g ai/ha, preemergence, 0 to 100 scale (0 no effect, 100 complete control)
[22] = Preemergence, 500 g ai/ha, 0 is no effect, 100 is complete control
[23] = 125 g ai/ha, Postemergence, visual rating about 10 d after treatment
[24] = Postemergence, 500 g ai/ha, visual injury, 0 to 100 scale (0 no effect, 100 complete control), approx. 10 d
[25] = 500 g ai/ha, preemergence, 0 to 100 scale where 0 is no effect and 100 is complete control

Cc1ccc(C2CNC(=O)C2C(=O)Nc2cccc(F)c2F)cc1F (racemic) [Compound 369]
Plant response rating, Corn (corn (Zea mays); [19]): 50 | Plant response rating, Corn (corn (Zea mays); [20]): 0 | Plant response rating, Blackgrass [1, 19]: 70 | Plant response rating, Blackgrass [1, 20]: 30 | Plant response rating, Barnyardgrass [2, 19]: 90 | Plant response rating, Barnyardgrass [2, 20]: 90 | Plant response rating, Pigweed [3, 19]: 0 | Plant response rating, Pigweed [3, 20]: 0 | Plant response rating, Kochia (Kochia (Kochia scoparia) [4]; [19]): 60 | Plant response rating, Kochia (Kochia (Kochia scoparia) [4]; [20]): 20 | Plant response rating, Galium [5, 19]: 70 | Plant response rating, Galium [5, 20]: 60 | Plant response rating, Ryegrass, Italian [6, 19]: 50 | Plant response rating, Ryegrass, Italian [6, 20]: 20 | Plant response rating, Wheat [7, 19]: 60 | Plant response rating, Wheat [7, 20]: 0 | Plant response rating, Foxtail, Giant [8, 19]: 80 | Plant response rating, Foxtail, Giant [8, 20]: 20 | Plant response rating, Ragweed [9, 19]: 30 | Plant response rating, Ragweed [9, 20]: 0 | Plant response rating, Barnyardgrass [10, 21]: 90 | Barnyardgrass plant response rating (0 to 100 scale) [10, 22]: 90 | Plant response rating, Pigweed [11, 21]: 0 | Pigweed plant response rating (0 to 100 scale) [11, 22]: 0 | Plant response rating, Kochia (Kochia (Kochia scoparia) [12]; [21]): 50 | Kochia plant response rating (0 to 100 scale) (Kochia (Kochia scoparia) [12]; [22]): 40 | Plant response rating, Ryegrass, Italian ([13]; preemergence): 0 | Ryegrass, Italian plant response rating (0 to 100 scale) [13, 22]: 20 | Plant response rating, Foxtail, Giant ([14]; preemergence): 90 | Foxtail, Giant plant response rating (0 to 100 scale) [14, 22]: 90 | Plant response rating, Ragweed ([15]; preemergence): 60 | Ragweed plant response rating (0 to 100 scale) [15, 22]: 60 | Plant response rating, Rice (rice (Oryra sativa); 13 to 15 d): 0 | Plant response rating, Barnyardgrass ([16]; 13 to 15 d): 20 | Plant response rating, Sedge, Umbrella ([17]; 0 to 100 scale where 0 is no effect and 100 is complete control, 13 to 15 d): 0 | Plant response rating, Ducksalad ([18]; 13 to 15 d): 100

Cc1cc([C@H]2CN(C)C(=O)[C@@H]2C(=O)Nc2ccccc2[S+](C)[O-])ccc1F (stereo partly drawn) [Compound 1313]
Corn plant response rating (0 to 100 scale) (corn (Zea mays); [23]): 0 | Plant response rating, Corn (corn (Zea mays); [24]): 0 | pest or weed control at 125 g/ha ([1]; Alopecurus myosuroides, post-emergence, 240 h, 125 g ai/ha, Postemergence, visual rating about 10 d after treatment, read-out: Blackgrass plant response rating (0 to 100 scale)): 0% | Plant response rating, Blackgrass [1, 24]: 0 | pest or weed control at 125 g/ha ([3]; Amaranthus retroflexus, post-emergence, 240 h, 125 g ai/ha, Postemergence, visual rating about 10 d after treatment, read-out: Pigweed plant response rating (0 to 100 scale)): 0% | Plant response rating, Pigweed [3, 24]: 0 | Kochia plant response rating (0 to 100 scale) (Kochia (Kochia scoparia) [4]; [23]): 20 | pest or weed control at 500 g/ha (Kochia (Kochia scoparia) [4]; Bassia scoparia, post-emergence, 240 h, Postemergence, 500 g ai/ha, visual injury, 0 to 100 scale (0 no effect, 100 complete control), approx. 10 d, read-out: Plant response rating, Kochia): 50% | Galium plant response rating (0 to 100 scale) [5, 23]: 0 | pest or weed control at 500 g/ha ([5]; Galium, post-emergence, 240 h, Postemergence, 500 g ai/ha, visual injury, 0 to 100 scale (0 no effect, 100 complete control), approx. 10 d, read-out: Plant response rating, Galium): 40% | pest or weed control at 125 g/ha ([6]; Lolium multiflorum, post-emergence, 240 h, 125 g ai/ha, Postemergence, visual rating about 10 d after treatment, read-out: Ryegrass, Italian plant response rating (0 to 100 scale)): 0% | pest or weed control at 500 g/ha ([6]; Lolium multiflorum, post-emergence, 240 h, Postemergence, 500 g ai/ha, visual injury, 0 to 100 scale (0 no effect, 100 complete control), approx. 10 d, read-out: Plant response rating, Ryegrass, Italian): 0% | Wheat plant response rating (0 to 100 scale) [7, 23]: 0 | Plant response rating, Wheat [7, 24]: 0 | pest or weed control at 125 g/ha ([8]; Setaria faberi, post-emergence, 240 h, 125 g ai/ha, Postemergence, visual rating about 10 d after treatment, read-out: Foxtail, Giant plant response rating (0 to 100 scale)): 90% | pest or weed control at 500 g/ha ([8]; Setaria faberi, post-emergence, 240 h, Postemergence, 500 g ai/ha, visual injury, 0 to 100 scale (0 no effect, 100 complete control), approx. 10 d, read-out: Plant response rating, Foxtail, Giant): 90% | pest or weed control at 125 g/ha ([9]; Ambrosia artemisiifolia, post-emergence, 240 h, 125 g ai/ha, Postemergence, visual rating about 10 d after treatment, read-out: Ragweed plant response rating (0 to 100 scale)): 0% | Plant response rating, Ragweed [9, 24]: 0 | pest or weed control at 500 g/ha ([10]; Echinochloa crus-galli, pre-emergence, 240 h, 500 g ai/ha, preemergence, 0 to 100 scale where 0 is no effect and 100 is complete control, read-out: Barnyardgrass plant response rating): 100% | pest or weed control at 125 g/ha ([10]; Echinochloa crus-galli, pre-emergence, 240 h, Preemergence, 125 g ai/ha, 0 to 100 scale (0 no effect, 100 complete control), read-out: Plant response rating, Barnyardgrass): 90% | Pigweed plant response rating [11, 25]: 0 | pest or weed control at 125 g/ha ([11]; Amaranthus retroflexus, pre-emergence, 240 h, Preemergence, 125 g ai/ha, 0 to 100 scale (0 no effect, 100 complete control), read-out: Plant response rating, Pigweed): 0% | pest or weed control at 500 g/ha (Kochia (Kochia scoparia) [12]; Bassia scoparia, pre-emergence, 240 h, 500 g ai/ha, preemergence, 0 to 100 scale where 0 is no effect and 100 is complete control, read-out: Kochia plant response rating): 100% | pest or weed control at 125 g/ha (Kochia (Kochia scoparia) [12]; Bassia scoparia, pre-emergence, 240 h, Preemergence, 125 g ai/ha, 0 to 100 scale (0 no effect, 100 complete control), read-out: Plant response rating, Kochia): 90% | Plant response rating, Ryegrass, Italian ([13]; Preemergence): 0 | Plant response rating, Foxtail, Giant ([14]; Preemergence): 20 | pest or weed control at 500 g/ha ([14]; Setaria faberi, pre-emergence, 240 h, 500 g ai/ha, preemergence, 0 to 100 scale where 0 is no effect and 100 is complete control, read-out: Foxtail, Giant plant response rating): 80% | Ragweed plant response rating [15, 25]: 0 | Plant response rating, Ragweed ([15]; Preemergence): 0 | pest or weed control at 250 g/ha (rice (Oryra sativa); Oryza sativa, read-out: Rice plant response rating): 0% | Barnyardgrass plant response rating [16]: 25 | pest or weed control at 250 g/ha ([17]; Cyperus difformis, 360 h, visually evaluated after 13 to 15 d, read-out: Plant response rating, Sedge, Umbrella (0 to 100 scale where 0 is no effect and 100 is complete control)): 0% | Ducksalad plant response rating [18]: 70
